Each structure is given as a SMILES string. Residue numbers refer to the chain shown, from its start.

These results are taken from PMC6526117 (Experimental Neurobiology, 2019).

Experiment in all cases: whole-cell patch clamp, SCAM block of ICl,swell
Common to all, as to type: cell-based
Common to all, as to conditions: read-out: % block

For experiment [1], the target named is T1, TTYH1 (Mus musculus, UniProt Q9D3A9, V164C).
T1 sequence (Q9D3A9 1-450 V164C): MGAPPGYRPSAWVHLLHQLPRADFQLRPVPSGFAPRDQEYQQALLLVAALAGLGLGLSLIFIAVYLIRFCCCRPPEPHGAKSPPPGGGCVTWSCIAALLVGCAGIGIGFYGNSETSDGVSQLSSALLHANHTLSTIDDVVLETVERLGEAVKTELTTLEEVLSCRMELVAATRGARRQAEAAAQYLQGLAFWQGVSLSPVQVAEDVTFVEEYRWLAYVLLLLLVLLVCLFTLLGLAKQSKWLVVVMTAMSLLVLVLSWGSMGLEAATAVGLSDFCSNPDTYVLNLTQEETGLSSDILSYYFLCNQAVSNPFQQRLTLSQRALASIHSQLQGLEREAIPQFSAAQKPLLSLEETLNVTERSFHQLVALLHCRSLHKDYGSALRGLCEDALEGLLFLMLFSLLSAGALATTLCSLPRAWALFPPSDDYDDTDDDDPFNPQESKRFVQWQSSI

Experiment [2] concerns the target T2, TTYH1 (Mus musculus, UniProt Q9D3A9).
T2 sequence (Q9D3A9 1-450): T1 sequence (Q9D3A9 1-450 V164C) with C164V

For experiment [3], the target named is T3, TTYH1 (Mus musculus, UniProt Q9D3A9, R165C).
T3 sequence (Q9D3A9 1-450 R165C): T1 sequence (Q9D3A9 1-450 V164C) with C164V, R165C

Regarding `CS(=O)(=O)SCCS(=O)(=O)O` [MTSES], the inhibition at 100000 µM turned out to be 28.9% at TTYH1 [1], 9.01% on TTYH1 [2] and 36.6% at TTYH1 [3].
